Broadly, the IC50 is the midpoint of a concentration-inhibition curve.

For data set [1], the target named is hNav1.2 (Homo sapiens, UniProt Q99250). Briefly: Patch clamp selectivity, hNav1.2. Format: cell-based. To be noted: same procedure as Example 3; species not given; read-out: IC50 in Patch Clamp Assay, NaV1.2. The procedure:
(§1) Data for TRPA1 inhibition and the selectivity of TRPA1 inhibition was obtained by this method for the compound of Formula (Ia) and included in Table 1 and Table 2. All currents were recorded in whole-cell configuration using EPC-9 and EPC-10 amplifiers and Patchmaster software (HEKA). […] The standard pipette solution consisted of 140 mM CsAsp, 10 mM EGTA, 10 mM HEPES, 2.27 mM MgCl2, 1.91 mM CaCl2, 4 mM MgATP, and 0.1-0.3 mM Na2GTP, with pH adjusted to 7.2 with CsOH. In addition, a solution containing 145 mM CsCl, 10 mM HEPES, 10 mM EGTA and 1 mM MgCl2 (pH 7.2 adjusted with CsOH) can be used. The standard bath solution contained 150 mM NaCl, 10 mM HEPES, 10 mM glucose, 4.5 mM KCl, 1 mM EGTA, 3 mM MgCl2, with pH adjusted to 7.4 with NaOH. In some instances, 2 mM CaCl2 was added in place of EGTA and the concentration of MgCl2 was reduced to 1 mM.
(§2) Data were collected either by continuous recordings at −60 mV or by applying voltage ramps from a holding potential of 0 mV every 4 s. […] Inward and outward currents were analyzed from the ramps at −80 and 80 mV, respectively. […]
(§3) Solutions were switched using a gravity-fed continuous focal perfusion system. […] Temperatures were confirmed using a thermistor (Warner Instruments, TA-29), with temperatures at the recorded cell estimated to be within +/−2° C. of those reported. […]
For orientation: The patch-clamp technique gives a direct electrical read-out from membranes.

The target of data set [2] is hERG (Homo sapiens, UniProt Q12809). Briefly: Patch clamp selectivity, hERG. Format: cell-based. To be noted: same procedure as Example 3. On the procedure: as §1, §2, §3
Data set [3] deals with hTRPA1 (Homo sapiens, UniProt O75762). Briefly: Whole-cell patch clamp inhibition of hTRPA1. Type of data set: cell-based. To be noted: same procedure as Example 3; species not given; read-out: IC50 in Patch Clamp Assay, TRPA1. The procedure: as §1, §2, §3
Data set [4] concerns the target T1, hTRPV3 (Homo sapiens, UniProt Q8NET8).
T1 sequence (Q8NET8 1-790): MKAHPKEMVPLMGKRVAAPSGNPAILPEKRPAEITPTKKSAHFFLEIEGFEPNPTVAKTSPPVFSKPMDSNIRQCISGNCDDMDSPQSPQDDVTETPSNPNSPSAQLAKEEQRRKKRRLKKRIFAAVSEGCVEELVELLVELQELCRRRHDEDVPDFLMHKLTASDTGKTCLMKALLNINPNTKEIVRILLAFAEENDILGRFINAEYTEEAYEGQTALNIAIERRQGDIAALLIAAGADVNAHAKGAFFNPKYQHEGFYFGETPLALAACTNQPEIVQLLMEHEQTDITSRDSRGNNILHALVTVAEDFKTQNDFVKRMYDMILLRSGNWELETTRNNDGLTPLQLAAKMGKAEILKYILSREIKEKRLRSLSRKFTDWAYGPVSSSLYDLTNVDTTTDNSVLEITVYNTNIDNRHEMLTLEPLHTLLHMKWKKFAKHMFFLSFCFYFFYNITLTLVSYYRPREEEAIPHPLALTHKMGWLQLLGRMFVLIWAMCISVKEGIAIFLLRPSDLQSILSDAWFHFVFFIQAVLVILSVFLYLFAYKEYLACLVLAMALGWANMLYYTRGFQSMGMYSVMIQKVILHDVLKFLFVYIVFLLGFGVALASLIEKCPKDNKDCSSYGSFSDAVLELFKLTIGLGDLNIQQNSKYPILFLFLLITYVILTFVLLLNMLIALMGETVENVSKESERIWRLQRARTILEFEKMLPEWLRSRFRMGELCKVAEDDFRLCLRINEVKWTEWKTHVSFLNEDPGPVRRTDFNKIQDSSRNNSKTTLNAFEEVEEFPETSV
Kind of data set: Patch clamp selectivity, hTRPV3. Type of data set: cell-based. To be noted: same procedure as Example 3; species not given; read-out: IC50 in Patch Clamp Assay, TrpV3. The procedure:
as §1, §2, §3

Data set [5] concerns formalin-induced pain behavior. Briefly: Formalin-induced pain behavior in vivo rodent model. Also noted: species or system rat. To be noted: i.p. administration, in words. An excerpt: The data shown in Tables 3a, 3b, and 3c and FIG. 2 were obtained by administering a pharmaceutical composition comprising the compound of Formula (Ia) to rodents in the formalin-induced pain duration at various doses according to Example 5. Specifically, the data in Tables 3a, 3b, and 3c and FIG. 2 were obtained by intraperitoneal (i.p.) administration of compositions containing different concentrations of the compound of Formula (Ia), a comparator composition containing recited amounts of the comparator compound (e.g., 150 mg/kg of the comparator compound of Formula (II) in Table 3a) and a control composition containing the vehicle (e.g., without the compound of Formula (Ia) or a comparator compound).
The compound of Formula (Ia) and the comparator compounds of Formula (II) and Formula (III) were tested in the formalin-induced pain test reported by Dubuisson et al., Pain 1977 December; 4(2):161-74 (incorporated herein by reference in its entirety). Dubuisson et al. (1977) describe a method for assessing pain and analgesia in rats and cats. Briefly, dilute formalin (50 μL of 3% formalin) is injected into the plantar surface of the hind paw. […] The individual responsible for counting the pain behaviors in a particular study is blinded to the treatment groups.
Rats were treated with the HCl salt of Compound (Ia) at various doses (3, 10, 30, and 50 mg/kg, IP) or with the vehicle (IP).

The subject of data set [6] is serum biomarkers of hepatotoxicity. Kind of data set: Hepatotoxicity serum biomarker study in dogs, oral dose. Type of data set: in vivo, dog. To be noted: for ALT level elevation: single PO dose of 50 mg/kg. On the procedure: The compound of Formula (Ia) was orally dosed to […] at dose levels of 5, 15 or 50 mg/kg using 30% Sulfobutylether β-cyclodextrin as the vehicle for assessment of safety as measured via serum chemistry biomarkers of hepatotoxicity or bile duct injury FIG. 5A, showing measurements of alanine aminotranferease [ALT], aspartate aminotranferease [AST], alkaline phosphatase [ALP] and gamma-glutamyl transferase [GGT] in the dogs at each dose level (each bar represents a measurement from 1 dog in the study). […] For example, the ALT levels were elevated up to about 60-fold in male dogs and up to about 130-fold in female beagle dogs following a single PO dose of 50 mg/kg.

Data set [7] deals with female rats. Kind of data set: 7-day i.p. repeat dose screening toxicity study. Format: in vivo, rat. To be noted: rats, 50 mg/kg/day i.p. for 7 consecutive days. The procedure:
The compound of Formula (Ia) was evaluated in a 7-day repeat dose screening toxicity study in female rats. In order to maximize systemic exposure, rats were administered compound of Formula (Ia) i.p. at 50 mg/kg/day for 7 consecutive days, to obtain the results shown in FIG. 6. Clinical chemistry parameters were evaluated on Days 3 and 8. Histopathology was performed on select organs including the liver, kidney, spleen, and lung.

hERG, sequence (Q12809 whole entry): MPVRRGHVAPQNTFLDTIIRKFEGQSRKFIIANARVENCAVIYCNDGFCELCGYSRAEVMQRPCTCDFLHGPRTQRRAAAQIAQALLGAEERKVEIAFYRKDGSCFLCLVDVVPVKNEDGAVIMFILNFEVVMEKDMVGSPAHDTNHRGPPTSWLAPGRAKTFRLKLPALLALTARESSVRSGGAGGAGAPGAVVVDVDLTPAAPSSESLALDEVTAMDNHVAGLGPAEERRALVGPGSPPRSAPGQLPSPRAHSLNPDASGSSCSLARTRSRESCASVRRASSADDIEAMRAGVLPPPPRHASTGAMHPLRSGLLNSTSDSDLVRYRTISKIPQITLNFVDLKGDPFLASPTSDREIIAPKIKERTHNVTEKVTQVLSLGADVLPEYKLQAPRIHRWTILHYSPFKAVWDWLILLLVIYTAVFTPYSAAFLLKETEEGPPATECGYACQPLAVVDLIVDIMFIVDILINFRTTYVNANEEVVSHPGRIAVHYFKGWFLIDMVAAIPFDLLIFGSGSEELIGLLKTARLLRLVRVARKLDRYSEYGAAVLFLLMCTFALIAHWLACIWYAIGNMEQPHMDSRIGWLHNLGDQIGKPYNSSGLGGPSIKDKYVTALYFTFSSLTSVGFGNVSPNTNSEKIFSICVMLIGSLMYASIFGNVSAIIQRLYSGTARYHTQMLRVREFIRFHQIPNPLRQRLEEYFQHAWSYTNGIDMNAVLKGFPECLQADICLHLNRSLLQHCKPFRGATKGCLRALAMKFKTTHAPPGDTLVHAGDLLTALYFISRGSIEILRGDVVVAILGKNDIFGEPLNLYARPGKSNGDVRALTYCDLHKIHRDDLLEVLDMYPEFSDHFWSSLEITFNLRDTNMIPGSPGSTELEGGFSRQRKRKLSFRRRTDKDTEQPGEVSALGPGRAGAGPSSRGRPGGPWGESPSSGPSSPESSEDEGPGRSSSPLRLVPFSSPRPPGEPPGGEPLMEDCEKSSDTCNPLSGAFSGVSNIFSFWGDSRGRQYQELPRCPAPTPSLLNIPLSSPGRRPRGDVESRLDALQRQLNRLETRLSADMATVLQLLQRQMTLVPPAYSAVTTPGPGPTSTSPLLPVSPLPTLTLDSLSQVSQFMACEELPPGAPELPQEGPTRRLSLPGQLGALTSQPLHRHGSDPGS
hNav1.2, sequence (Q99250 whole entry): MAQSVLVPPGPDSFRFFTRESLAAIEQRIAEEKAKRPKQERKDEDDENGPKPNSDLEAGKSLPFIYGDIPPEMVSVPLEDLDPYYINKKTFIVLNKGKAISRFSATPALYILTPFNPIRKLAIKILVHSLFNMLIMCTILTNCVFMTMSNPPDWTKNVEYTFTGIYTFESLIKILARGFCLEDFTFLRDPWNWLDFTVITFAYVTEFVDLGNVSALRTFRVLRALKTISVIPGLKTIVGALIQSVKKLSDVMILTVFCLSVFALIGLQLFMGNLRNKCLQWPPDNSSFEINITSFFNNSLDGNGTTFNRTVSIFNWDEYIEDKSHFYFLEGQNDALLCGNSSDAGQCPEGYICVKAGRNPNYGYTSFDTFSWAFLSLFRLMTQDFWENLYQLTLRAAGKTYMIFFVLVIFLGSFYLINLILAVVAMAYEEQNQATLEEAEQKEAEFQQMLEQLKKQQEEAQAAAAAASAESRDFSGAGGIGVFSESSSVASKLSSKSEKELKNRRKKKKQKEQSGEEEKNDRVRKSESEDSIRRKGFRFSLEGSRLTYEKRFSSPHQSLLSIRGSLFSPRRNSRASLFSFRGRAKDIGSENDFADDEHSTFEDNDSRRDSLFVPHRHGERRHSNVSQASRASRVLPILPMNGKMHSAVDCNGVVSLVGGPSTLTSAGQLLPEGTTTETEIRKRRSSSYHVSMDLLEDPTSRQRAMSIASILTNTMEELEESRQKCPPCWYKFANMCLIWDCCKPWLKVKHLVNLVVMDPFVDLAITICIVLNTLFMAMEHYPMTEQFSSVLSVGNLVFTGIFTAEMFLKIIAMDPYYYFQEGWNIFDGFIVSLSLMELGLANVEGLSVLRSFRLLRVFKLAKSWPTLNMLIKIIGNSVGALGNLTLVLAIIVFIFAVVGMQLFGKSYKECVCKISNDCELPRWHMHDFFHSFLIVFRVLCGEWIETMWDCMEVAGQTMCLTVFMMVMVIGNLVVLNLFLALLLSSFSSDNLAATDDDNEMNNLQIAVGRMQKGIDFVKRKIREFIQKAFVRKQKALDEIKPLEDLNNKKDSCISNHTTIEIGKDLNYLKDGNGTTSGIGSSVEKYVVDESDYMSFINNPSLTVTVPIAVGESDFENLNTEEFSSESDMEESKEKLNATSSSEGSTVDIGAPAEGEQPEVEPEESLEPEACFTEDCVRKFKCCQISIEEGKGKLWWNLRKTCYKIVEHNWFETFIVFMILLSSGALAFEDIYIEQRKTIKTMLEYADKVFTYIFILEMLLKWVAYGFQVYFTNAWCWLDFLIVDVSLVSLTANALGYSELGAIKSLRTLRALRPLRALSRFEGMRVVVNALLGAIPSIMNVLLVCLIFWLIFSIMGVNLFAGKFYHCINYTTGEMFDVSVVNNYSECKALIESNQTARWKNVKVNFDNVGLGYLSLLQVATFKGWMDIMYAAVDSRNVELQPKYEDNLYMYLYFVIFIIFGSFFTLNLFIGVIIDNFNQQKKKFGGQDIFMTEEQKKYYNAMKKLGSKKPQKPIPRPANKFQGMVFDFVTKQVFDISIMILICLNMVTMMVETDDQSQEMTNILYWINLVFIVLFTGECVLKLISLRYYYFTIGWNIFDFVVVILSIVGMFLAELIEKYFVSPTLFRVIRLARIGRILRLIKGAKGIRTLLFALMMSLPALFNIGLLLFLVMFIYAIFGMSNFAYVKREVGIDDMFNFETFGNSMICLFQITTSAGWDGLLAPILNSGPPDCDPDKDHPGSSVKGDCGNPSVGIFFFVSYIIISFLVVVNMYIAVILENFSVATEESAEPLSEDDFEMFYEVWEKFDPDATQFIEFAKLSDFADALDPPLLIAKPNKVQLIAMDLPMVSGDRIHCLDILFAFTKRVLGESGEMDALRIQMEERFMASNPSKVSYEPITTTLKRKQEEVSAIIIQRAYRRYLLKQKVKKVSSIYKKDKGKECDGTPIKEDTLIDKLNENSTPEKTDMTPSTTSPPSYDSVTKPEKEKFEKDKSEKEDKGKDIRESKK
hTRPA1, sequence (O75762 whole entry): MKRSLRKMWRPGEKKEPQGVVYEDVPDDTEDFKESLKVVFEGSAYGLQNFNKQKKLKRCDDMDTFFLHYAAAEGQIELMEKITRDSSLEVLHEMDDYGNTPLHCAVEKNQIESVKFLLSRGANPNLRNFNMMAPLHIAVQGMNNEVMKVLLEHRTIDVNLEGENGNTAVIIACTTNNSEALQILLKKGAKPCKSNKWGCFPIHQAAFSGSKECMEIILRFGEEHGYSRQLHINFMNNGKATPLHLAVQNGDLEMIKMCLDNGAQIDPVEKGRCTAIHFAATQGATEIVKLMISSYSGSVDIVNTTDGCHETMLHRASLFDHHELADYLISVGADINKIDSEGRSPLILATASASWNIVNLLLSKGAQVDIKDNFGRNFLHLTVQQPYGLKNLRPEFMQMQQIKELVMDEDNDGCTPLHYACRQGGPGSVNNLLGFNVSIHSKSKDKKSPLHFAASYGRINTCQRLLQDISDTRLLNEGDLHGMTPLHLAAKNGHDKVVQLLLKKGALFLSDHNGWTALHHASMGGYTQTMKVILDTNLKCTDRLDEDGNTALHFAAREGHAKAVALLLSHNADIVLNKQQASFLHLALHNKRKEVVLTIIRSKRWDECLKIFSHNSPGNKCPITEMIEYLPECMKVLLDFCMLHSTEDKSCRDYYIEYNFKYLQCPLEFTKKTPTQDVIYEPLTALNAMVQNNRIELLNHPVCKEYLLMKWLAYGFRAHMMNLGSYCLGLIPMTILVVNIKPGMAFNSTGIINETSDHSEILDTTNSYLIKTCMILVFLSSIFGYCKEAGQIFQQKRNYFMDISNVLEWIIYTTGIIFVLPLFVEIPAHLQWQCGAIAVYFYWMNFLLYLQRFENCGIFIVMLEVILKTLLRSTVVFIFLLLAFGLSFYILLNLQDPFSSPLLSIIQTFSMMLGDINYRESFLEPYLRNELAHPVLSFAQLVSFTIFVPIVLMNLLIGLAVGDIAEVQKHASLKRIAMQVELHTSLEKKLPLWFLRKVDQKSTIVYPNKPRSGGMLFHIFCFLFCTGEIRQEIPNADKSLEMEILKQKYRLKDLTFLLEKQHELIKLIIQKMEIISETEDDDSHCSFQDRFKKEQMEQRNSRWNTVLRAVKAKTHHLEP

On to `C[C@H]1CCCN1c1ncc(-c2cccc(NC(=O)Cn3cnc4[nH]c(=O)n(C)c(=O)c43)n2)cn1` [Formula (IV), reference compound], for which the IC50 was over 20 µM in data set [1], over 20 µM in data set [2], 9.8 µM in data set [3] and over 10 µM in data set [4].

As to `CC(C)c1ccc(NC(=O)Cn2cnc3c2c(=O)n(C)c(=O)n3C)cc1` [Formula (II)], the “duration of pain behavior compared with vehicle” value in data set [5] is “shorter durations of pain behavior than those treated with the vehicle”.

`C[C@H]1CCCN1c1ccc(-c2csc(NC(=O)Cn3cnc4c3c(=O)n(C)c(=O)n4C)n2)cc1F` [Formula (III)]: the “duration of pain behavior compared with vehicle” value in data set [5] is on record as “shorter durations of pain behavior than those treated with the vehicle”. Moreover, the “serum biomarkers of hepatotoxicity (ALT, AST, ALP, GGT)” value in data set [6] (dogs, 50 mg/kg PO) is “did elevate serum biomarkers of hepatotoxicity”. The values for the ALT level elevation result in data set [6] (female beagle dogs) and in data set [6] (male dogs) were “up to 130 fold” and “up to 60 fold”, respectively. In addition, in data set [7], the “serum biomarkers of hepatotoxicity” value was “did elevate serum biomarkers of hepatotoxicity”.

The values are drawn from patent publication US9193729B2, “Inhibiting transient receptor potential ion channel TRPA1” (Cubist Pharmaceuticals, Inc., priority 2011, dated 2015).
